Results reported in ChEMBL document CHEMBL6083214, “Synthesis, biochemical screening and in-silico investigations of arylsulfonamides bearing linear and cyclic tails” (Bioorg Med Chem Lett, 2024).
pKi: −log10 of the molar value.

Key:
Carbonic anhydrase 2 = Carbonic anhydrase 2 (Homo sapiens, UniProt P00918)
Description: Inhibition of human carbonic anhydrase II assessed as inhibition constant by stopped-flow carbon dioxide hydrase assay

Carbonic anhydrase 1 = Carbonic anhydrase 1 (Homo sapiens, UniProt P00915)
Description: Inhibition of human carbonic anhydrase I assessed as inhibition constant by stopped-flow carbon dioxide hydrase assay

Carbonic anhydrase 9 = Carbonic anhydrase 9 (Homo sapiens, UniProt Q16790)
Description: Inhibition of human carbonic anhydrase IX assessed as inhibition constant by stopped-flow carbon dioxide hydrase assay

Carbonic anhydrase 12 = Carbonic anhydrase 12 (Homo sapiens, UniProt O43570)
Carbonic anhydrase 12, sequence (O43570 whole entry): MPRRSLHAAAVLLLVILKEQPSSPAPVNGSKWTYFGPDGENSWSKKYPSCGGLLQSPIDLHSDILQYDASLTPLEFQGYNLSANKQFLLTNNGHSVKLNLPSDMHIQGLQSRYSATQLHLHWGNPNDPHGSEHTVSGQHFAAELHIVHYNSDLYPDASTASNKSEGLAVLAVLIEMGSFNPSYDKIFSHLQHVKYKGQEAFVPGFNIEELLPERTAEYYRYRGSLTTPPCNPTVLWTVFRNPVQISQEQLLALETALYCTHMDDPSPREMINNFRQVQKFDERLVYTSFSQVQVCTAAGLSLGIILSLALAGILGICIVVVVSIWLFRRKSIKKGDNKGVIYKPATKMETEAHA
Description: Inhibition of human carbonic anhydrase XII assessed as inhibition constant by stopped-flow carbon dioxide hydrase assay

Carbonic anhydrase 1, sequence (P00915 whole entry): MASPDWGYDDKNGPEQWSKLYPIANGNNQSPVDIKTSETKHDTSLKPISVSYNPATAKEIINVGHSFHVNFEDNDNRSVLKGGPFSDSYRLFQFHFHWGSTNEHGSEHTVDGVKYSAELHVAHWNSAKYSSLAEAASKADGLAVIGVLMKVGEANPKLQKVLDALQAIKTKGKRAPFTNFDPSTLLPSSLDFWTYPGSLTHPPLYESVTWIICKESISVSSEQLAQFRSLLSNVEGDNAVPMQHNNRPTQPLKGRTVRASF

| SMILES | pKi (Carbonic anhydrase 2) | pKi (Carbonic anhydrase 1) | pKi (Carbonic anhydrase 9) | pKi (Carbonic anhydrase 12) |
| --- | --- | --- | --- | --- |
| NS(=O)(=O)c1ccc(/N=C/c2ccc(Cl)cc2)cc1 | 7.65 |  |  |  |
| NS(=O)(=O)c1ccc(/N=C/c2ccc([N+](=O)[O-])cc2)cc1 | 7.59 |  |  |  |
| N#Cc1ccc(C2SCCC(=O)N2c2ccc(S(N)(=O)=O)cc2)cc1 (racemic) | 8.09 | 8.07 | 8.43 | 7.05 |
| N#Cc1cccc(C2SCCC(=O)N2c2ccc(S(N)(=O)=O)cc2)c1 (racemic) | 7.84 | 8.14 | 7.72 | 7.21 |

Second part, the molecule after the results:

| pKi (Carbonic anhydrase 2) | pKi (Carbonic anhydrase 1) | pKi (Carbonic anhydrase 9) | pKi (Carbonic anhydrase 12) | SMILES |
| --- | --- | --- | --- | --- |
| 8.11 | 7.87 | 7.13 | 8.03 | NS(=O)(=O)c1ccc(N2C(=O)CCSC2c2ccc(F)cc2)cc1 (racemic) |
| 7.10 | 7.08 | 7.26 | 8.15 | NS(=O)(=O)c1ccc(N2C(=O)CCSC2c2ccc([N+](=O)[O-])cc2)cc1 (racemic) |
| 8.05 | 7.20 | 7.70 | 8.09 | NS(=O)(=O)c1ccc(N2C(=O)CCSC2c2ccc(Cl)cc2)cc1 (racemic) |
